Laboratory results from PMC10620772, “Design, synthesis, and biological evaluation of new pyrimidine-5-carbonitrile derivatives as novel anti-cancer, dual EGFR^WT/COX-2 inhibitors with docking studies” (RSC Advances, 2023).

Assays:
Experiment in all cases: NCI60 antitumor screening
Assay type in all cases: cell-based, human
SN12C = settings: Homo sapiens; 10 μM single dose; SN12C (renal cancer); read-out: growth inhibition percent (GI%)
MALME-3M = settings: Homo sapiens; 10 μM single dose; MALME-3M (melanoma); read-out: growth inhibition percent (GI%)
HOP-62 = settings: Homo sapiens; 10 μM single dose; HOP-62 (non-small cell lung cancer); read-out: growth inhibition percent (GI%)
CCRF-CEM = settings: Homo sapiens; 10 μM single dose; CCRF-CEM (leukaemia); read-out: growth inhibition percent (GI%)
PC-3 = settings: Homo sapiens; 10 μM single dose; PC-3 (prostate cancer); read-out: growth inhibition percent (GI%)
MDA-MB-468 = settings: Homo sapiens; 10 μM single dose; MDA-MB-468 (breast cancer); read-out: growth inhibition percent (GI%)
HCT-15 = settings: Homo sapiens; 10 μM single dose; HCT-15 (colon cancer); read-out: growth inhibition percent (GI%)
MOLT-4 = settings: Homo sapiens; 10 μM single dose; MOLT-4 (leukaemia); read-out: growth inhibition percent (GI%)
A498 = settings: Homo sapiens; 10 μM single dose; A498 (renal cancer); read-out: growth inhibition percent (GI%)
SF-295 = settings: Homo sapiens; 10 μM single dose; SF-295 (CNS cancer); read-out: growth inhibition percent (GI%)
ACHN = settings: Homo sapiens; 10 μM single dose; ACHN (renal cancer); read-out: growth inhibition percent (GI%)
786–0 = settings: Homo sapiens; 10 μM single dose; 786–0 (renal cancer); read-out: growth inhibition percent (GI%)
M14 = settings: Homo sapiens; 10 μM single dose; M14 (melanoma); read-out: growth inhibition percent (GI%)
SNB-75 = settings: Homo sapiens; 10 μM single dose; SNB-75 (CNS cancer); read-out: growth inhibition percent (GI%)
K-562 = settings: Homo sapiens; 10 μM single dose; (leukaemia); read-out: growth inhibition percent (GI%)
CAKI-1 = settings: Homo sapiens; 10 μM single dose; CAKI-1 (renal cancer); read-out: growth inhibition percent (GI%)
SF-268 = settings: Homo sapiens; 10 μM single dose; SF-268 (CNS cancer); read-out: growth inhibition percent (GI%)
NCI-H322M = settings: Homo sapiens; 10 μM single dose; NCI-H322M (non-small cell lung cancer); read-out: growth inhibition percent (GI%)
SNB-19 = settings: Homo sapiens; 10 μM single dose; SNB-19 (CNS cancer); read-out: growth inhibition percent (GI%)
UACC-257 = settings: Homo sapiens; 10 μM single dose; UACC-257 (melanoma); read-out: growth inhibition percent (GI%)
KM12 = settings: Homo sapiens; 10 μM single dose; KM12 (colon cancer); read-out: growth inhibition percent (GI%)
OVCAR-5 = settings: Homo sapiens; 10 μM single dose; OVCAR-5 (ovarian cancer); read-out: growth inhibition percent (GI%)
OVCAR-3 = settings: Homo sapiens; 10 μM single dose; OVCAR-3 (ovarian cancer); read-out: growth inhibition percent (GI%)
A549/ATCC = settings: Homo sapiens; 10 μM single dose; A549/ATCC (non-small cell lung cancer); read-out: growth inhibition percent (GI%)
U251 = settings: Homo sapiens, U-251; 10 μM single dose; U251 (CNS cancer); read-out: growth inhibition percent (GI%)
TK-10 = settings: Homo sapiens; 10 μM single dose; TK-10 (renal cancer); read-out: growth inhibition percent (GI%)
NCI-H522 = settings: Homo sapiens; 10 μM single dose; NCI-H522 (non-small cell lung cancer); read-out: growth inhibition percent (GI%)
MCF7 = settings: Homo sapiens; 10 μM single dose; MCF7 (breast cancer); read-out: growth inhibition percent (GI%)
SK-MEL-5 = settings: Homo sapiens; 10 μM single dose; SK-MEL-5 (melanoma); read-out: growth inhibition percent (GI%)
SF-539 = settings: Homo sapiens; 10 μM single dose; SF-539 (CNS cancer); read-out: growth inhibition percent (GI%)
NCI-H460 = settings: Homo sapiens; 10 μM single dose; NCI-H460 (non-small cell lung cancer); read-out: growth inhibition percent (GI%)
HS 578T = settings: Homo sapiens; 10 μM single dose; HS 578T (breast cancer); read-out: growth inhibition percent (GI%)
IGROV1 = settings: Homo sapiens, IGROV-1; 10 μM single dose; IGROV1 (ovarian cancer); read-out: growth inhibition percent (GI%)
HL-60(TB) = settings: Homo sapiens; 10 μM single dose; HL-60(TB) (leukaemia); read-out: growth inhibition percent (GI%)
T-47D = settings: Homo sapiens, T47D; 10 μM single dose; T-47D (breast cancer); read-out: growth inhibition percent (GI%)
HT29 = settings: Homo sapiens, HT-29; 10 μM single dose; HT29 (colon cancer); read-out: growth inhibition percent (GI%)
MDA-MB-435 = settings: Homo sapiens; 10 μM single dose; MDA-MB-435 (melanoma); read-out: growth inhibition percent (GI%)

Row | SMILES | inhibition at 10 µM (SN12C) | inhibition at 10 µM (MALME-3M) | inhibition at 10 µM (HOP-62) | inhibition at 10 µM (CCRF-CEM) | inhibition at 10 µM (PC-3) | inhibition at 10 µM (MDA-MB-468) | inhibition at 10 µM (HCT-15) | inhibition at 10 µM (MOLT-4) | inhibition at 10 µM (A498) | inhibition at 10 µM (SF-295) | inhibition at 10 µM (ACHN) | inhibition at 10 µM (786–0) | inhibition at 10 µM (M14) | inhibition at 10 µM (SNB-75) | inhibition at 10 µM (K-562) | inhibition at 10 µM (CAKI-1) | inhibition at 10 µM (SF-268) | inhibition at 10 µM (NCI-H322M) | inhibition at 10 µM (SNB-19) | inhibition at 10 µM (UACC-257) | further results
1 | N#Cc1c(-c2ccc(F)cc2)nc(SCc2ccccc2)nc1N1CCN(c2ccccc2)CC1 [4m, 2-(Benzylthio)-4-(4-fluorophenyl)-6-(4-phenylpiperazin-1-yl) pyrimidine-5-carbonitrile] | < 10% | < 10% | < 10% | 11.1% | < 10% | < 10% | 10.8% | < 10% | < 10% | < 10% | < 10% | < 10% | < 10% | < 10% | 10.6% | 10.7% | < 10% | < 10% | < 10% | < 10% | inhibition at 10 µM (KM12): < 10%; inhibition at 10 µM (OVCAR-5): < 10%; inhibition at 10 µM (OVCAR-3): < 10%; inhibition at 10 µM (A549/ATCC): < 10%; inhibition at 10 µM (U251): < 10%; inhibition at 10 µM (TK-10): < 10%; inhibition at 10 µM (NCI-H522): < 10%; inhibition at 10 µM (MCF7): 16.1%; inhibition at 10 µM (SK-MEL-5): < 10%; inhibition at 10 µM (SF-539): < 10%; inhibition at 10 µM (NCI-H460): < 10%; inhibition at 10 µM (HS 578T): < 10%; inhibition at 10 µM (IGROV1): < 10%; inhibition at 10 µM (HL-60(TB)): < 10%; inhibition at 10 µM (T-47D): 15.1%; inhibition at 10 µM (HT29): < 10%; inhibition at 10 µM (MDA-MB-435): < 10%
2 | Cc1ccc(CSc2nc(-c3ccc(F)cc3)c(C#N)c(N3CCNCC3)n2)cc1 [4h, 4-(4-Fluorophenyl)-2-((4-methylbenzyl)thio)-6-(piperazin-1-yl)pyrimidine-5-carbonitrile] | < 10% | < 10% | < 10% | < 10% | < 10% | < 10% | < 10% | < 10% | < 10% | < 10% | < 10% | < 10% | < 10% | 19.5% | < 10% | 11.7% | < 10% | < 10% | < 10% | < 10% | inhibition at 10 µM (KM12): < 10%; inhibition at 10 µM (OVCAR-5): < 10%; inhibition at 10 µM (OVCAR-3): < 10%; inhibition at 10 µM (A549/ATCC): < 10%; inhibition at 10 µM (U251): < 10%; inhibition at 10 µM (TK-10): < 10%; inhibition at 10 µM (NCI-H522): < 10%; inhibition at 10 µM (MCF7): < 10%; inhibition at 10 µM (SK-MEL-5): < 10%; inhibition at 10 µM (SF-539): < 10%; inhibition at 10 µM (NCI-H460): < 10%; inhibition at 10 µM (HS 578T): 10.1%; inhibition at 10 µM (IGROV1): < 10%; inhibition at 10 µM (HL-60(TB)): < 10%; inhibition at 10 µM (T-47D): < 10%; inhibition at 10 µM (HT29): < 10%; inhibition at 10 µM (MDA-MB-435): < 10%
